The source of these data is PubChem BioAssay AID1918947 (Molecular Pharmacology Branch, DTP, NCI, 2023).

The assay concerns A498 complex spheroid viability. Nature of the assay: Anticancer human tumor A498 cell line growth inhibition.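 As to all read-outs here: spheroids exposed to agents for seven days before readout.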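 As to viability, T/C: 100% = DMSO vehicle-treated spheroids.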 Conditions: for viability, T/C: stronger effect = lower value. The essentials:
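Complex spheroids of tumor cells with HUVEC and human MSCs, exposed to iadademstat combined with other agents. Each agent tested in half-log steps from near clinical Cmax (else 10 microM top), DMSO ≤0.25%.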

The mark [1] stands for this setting: curve of first compound, second compound 0.1 µM.
Where [2] appears, read: curve of first compound, second compound 0.316 µM.
The mark [3] stands for this setting: curve of first compound, second compound 1 µM.
[4] abbreviates: curve of first compound, second compound 3.16 µM.
Where [5] appears, read: curve of first compound, second compound 10 µM.
Where [6] appears, read: second compound 0.1 µM, first compound 0.0316 µM.
Setting [7] is: second compound 0.1 µM, first compound 0.1 µM.
The mark [8] stands for this setting: second compound 0.1 µM, first compound 0.316 µM.
The mark [9] stands for this setting: second compound 0.1 µM, first compound 1 µM.
[10] abbreviates: second compound 0.316 µM, first compound 0.0316 µM.
[11] abbreviates: second compound 0.316 µM, first compound 0.1 µM.
Where [12] appears, read: second compound 0.316 µM, first compound 0.316 µM.
Where [13] appears, read: second compound 0.316 µM, first compound 1 µM.
[14] abbreviates: second compound 1 µM, first compound 0.0316 µM.
Where [15] appears, read: second compound 1 µM, first compound 0.1 µM.
The mark [16] stands for this setting: second compound 1 µM, first compound 0.316 µM.
Where [17] appears, read: second compound 1 µM, first compound 1 µM.
The mark [18] stands for this setting: second compound 3.16 µM, first compound 0.0316 µM.
Where [19] appears, read: second compound 3.16 µM, first compound 0.1 µM.
The mark [20] stands for this setting: second compound 3.16 µM, first compound 0.316 µM.
[21] abbreviates: second compound 3.16 µM, first compound 1 µM.
Where [22] appears, read: second compound 10 µM, first compound 0.0316 µM.
Where [23] appears, read: second compound 10 µM, first compound 0.1 µM.
[24] abbreviates: second compound 10 µM, first compound 0.316 µM.
The mark [25] stands for this setting: second compound 10 µM, first compound 1 µM.

SMILES strings stand for the structures. Where “and” joins values, the source holds several entries; their conditions need not be identical. Equal entries are not always repeated. Bounds are passed on as bounds.

Consider `Nc1ccn(C2OC(CO)C(O)C2(F)F)c(=O)n1` (centres undefined) + NC1CCC(NC2CC2c2ccccc2)CC1, for which the IC50 – broadly, the concentration that inhibits the measured activity by half – by setting is: under setting [1], less than 0.949 nM; under setting [2], less than 0.949 nM; under setting [3], less than 0.949 nM; under setting [4], less than 0.949 nM; under setting [5], less than 0.949 nM. Moreover, the viability, T/C (usually the result in the treated group divided by that in the control group, in per cent) reads like this: (second compound 0.1 µM, first compound 0.000949 µM) 25.7%; (second compound 0.1 µM, first compound 0.003 µM) 32.9%; (second compound 0.1 µM, first compound 0.00949 µM) 41.2%; (second compound 0.1 µM, first compound 0.03 µM) 38%; (second compound 0.1 µM, first compound 0.0949 µM) 36.8%; (second compound 0.1 µM, first compound 0.3 µM) 29.9%. Moreover, the viability, T/C is, setting by setting: (second compound 0.316 µM, first compound 0.000949 µM) 24.3%; (second compound 0.316 µM, first compound 0.003 µM) 33.9%; (second compound 0.316 µM, first compound 0.00949 µM) 44.2%; (second compound 0.316 µM, first compound 0.03 µM) 43.3%; (second compound 0.316 µM, first compound 0.0949 µM) 36.8%; (second compound 0.316 µM, first compound 0.3 µM) 31.1%. The viability, T/C reads like this: (second compound 1 µM, first compound 0.000949 µM) 21.7%; (second compound 1 µM, first compound 0.003 µM) 32.8%; (second compound 1 µM, first compound 0.00949 µM) 43.2%; (second compound 1 µM, first compound 0.03 µM) 40.8%; (second compound 1 µM, first compound 0.0949 µM) 29.9%; (second compound 1 µM, first compound 0.3 µM) 29.3%. Besides, the viability, T/C is, setting by setting: (second compound 3.16 µM, first compound 0.000949 µM) 23.8%; (second compound 3.16 µM, first compound 0.003 µM) 30.5%; (second compound 3.16 µM, first compound 0.00949 µM) 38.2%; (second compound 3.16 µM, first compound 0.03 µM) 38.2%; (second compound 3.16 µM, first compound 0.0949 µM) 30.8%; (second compound 3.16 µM, first compound 0.3 µM) 30.3%. For the same compound, the viability, T/C was 22.3% (second compound 10 µM, first compound 0.000949 µM); 26.7% (second compound 10 µM, first compound 0.003 µM); 39.8% (second compound 10 µM, first compound 0.00949 µM); 38.5% (second compound 10 µM, first compound 0.03 µM); 27.9% (second compound 10 µM, first compound 0.0949 µM); 25.5% (second compound 10 µM, first compound 0.3 µM).
Consider `CC1COCCN1c1cc(C2(S(C)(=N)=O)CC2)nc(-c2ccnc3[nH]ccc23)n1` (centres undefined) + NC1CCC(NC2CC2c2ccccc2)CC1, for which the IC50 turned out to be 648 nM under setting [1]; 784 nM under setting [2]; 677 nM under setting [3]; 590 nM under setting [4]; 507 nM under setting [5]. Also, the viability, T/C by setting is: under setting [6], 91.8%; under setting [7], 89%; under setting [8], 70.7%; under setting [9], 37.2%; (second compound 0.1 µM, first compound 3.16 µM) 18.2%; (second compound 0.1 µM, first compound 10 µM) 12%. Besides, the viability, T/C reads like this: under setting [10], 99%; under setting [11], 96.9%; under setting [12], 82.8%; under setting [13], 40.6%; (second compound 0.316 µM, first compound 3.16 µM) 18.9%; (second compound 0.316 µM, first compound 10 µM) 11.2%. For the same compound, the viability, T/C is 86.8% under setting [14]; 94% under setting [15]; 72.4% under setting [16]; 37.6% under setting [17]; 19.6% (second compound 1 µM, first compound 3.16 µM); 11.4% (second compound 1 µM, first compound 10 µM). Besides, the viability, T/C is 81.3% under setting [18]; 85.6% under setting [19]; 69.7% under setting [20]; 32.7% under setting [21]; 17.6% (second compound 3.16 µM, first compound 3.16 µM); 12.3% (second compound 3.16 µM, first compound 10 µM). Moreover, the viability, T/C was 76.6% under setting [22]; 75.9% under setting [23]; 60.8% under setting [24]; 33.9% under setting [25]; 17.9% (second compound 10 µM, first compound 3.16 µM); 12.8% (second compound 10 µM, first compound 10 µM).
Regarding `O=C(C=Cn1cnc(-c2cc(C(F)(F)F)cc(C(F)(F)F)c2)n1)NNc1cnccn1` + NC1CCC(NC2CC2c2ccccc2)CC1, the IC50 amounted to 5.21 nM under setting [1]; 7.74 nM under setting [2]; 6.26 nM under setting [3]; 6.7 nM under setting [4]; 4.09 nM under setting [5]. The viability, T/C reads like this: (second compound 0.1 µM, first compound 0.00316 µM) 56.5%; (second compound 0.1 µM, first compound 0.01 µM) 40.9%; under setting [6], 33.6%; under setting [7], 26.6%; under setting [8], 24.9%; under setting [9], 20.9%. For the same compound, the viability, T/C is, setting by setting: (second compound 0.316 µM, first compound 0.00316 µM) 66.7%; (second compound 0.316 µM, first compound 0.01 µM) 44.4%; under setting [10], 33.5%; under setting [11], 31.2%; under setting [12], 24.1%; under setting [13], 23.4%. Moreover, the viability, T/C (second compound 1 µM, first compound 0.00316 µM) is 62.4%; the viability, T/C (second compound 1 µM, first compound 0.01 µM) was 39.2%; the viability, T/C under setting [14] is 34.1%; the viability, T/C under setting [15] was 27.1%; the viability, T/C under setting [16] is 21.9%; the viability, T/C under setting [17] is 21.2%. The viability, T/C (second compound 3.16 µM, first compound 0.00316 µM) was 61.5%; the viability, T/C (second compound 3.16 µM, first compound 0.01 µM) was 42.6%; the viability, T/C under setting [18] is 34.1%; the viability, T/C under setting [19] is 26.9%; the viability, T/C under setting [20] was 21.5%; the viability, T/C under setting [21] is 20.5%. Also, the viability, T/C is 53.4% (second compound 10 µM, first compound 0.00316 µM); 39.2% (second compound 10 µM, first compound 0.01 µM); 31.1% under setting [22]; 26.4% under setting [23]; 22.9% under setting [24]; 16.4% under setting [25].
Regarding `Nc1ccn(C2OC(CO)C(O)C2(F)F)c(=O)n1` (centres undefined), the viability, T/C (compound 0.000949 µM) is 22.8% and 20%; the viability, T/C (compound 0.003 µM) was 29.2% and 27.8%; the viability, T/C (compound 0.00949 µM) was 43.3% and 107%; the viability, T/C (compound 0.03 µM) was 36.6% and 35.1%; the viability, T/C (compound 0.0949 µM) is 37% and 34%; the viability, T/C (compound 0.3 µM) was 27.9% and 29.2%. Also, the IC50 (curve of compound) was less than 0.949 nM.
With `O=C(C=Cc1cccc(S(=O)(=O)Nc2ccccc2)c1)NO`, the viability, T/C is 94% and 91% (compound 0.00949 µM); 82.5% and 80.6% (compound 0.03 µM); 70.8% and 65.3% (compound 0.0949 µM); 53.1% and 46.8% (compound 0.3 µM); 33.8% and 34.2% (compound 0.949 µM); 12.4% and 8.72% (compound 3 µM). Also, the IC50 (curve of compound) was 365 nM and 282 nM.
